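A five-concentration, 48-hour dose response in 96-well plates underlies each endpoint, interpolated linearly between surrounding concentrations. The concentration for 50% growth inhibition is given as GI50. TGI: concentration producing complete growth inhibition.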
Assays:
Experiment in all cases: NCI-60 cell line screen, 48 h
786-0 renal = system: 786-0 renal
A498 renal = system: A498 renal
A549 NSCLC = system: A549 NSCLC
ACHN renal = system: ACHN renal
BT-549 breast = system: BT-549 breast
CAKI-1 renal = system: CAKI-1 renal
CCRF-CEM leukemia = system: CCRF-CEM leukemia
COLO 205 colon = system: COLO 205 colon
DU-145 prostate = system: DU-145 prostate
EKVX NSCLC = system: EKVX NSCLC
HCC-2998 colon = system: HCC-2998 colon
HCT-116 colon = system: HCT-116 colon
HCT-15 colon = system: HCT-15 colon
HL-60(TB) leukemia = system: HL-60(TB) leukemia
HOP-62 NSCLC = system: HOP-62 NSCLC
HOP-92 NSCLC = system: HOP-92 NSCLC
HS 578T breast = system: HS 578T breast
HT29 colon = system: HT29 colon
IGROV1 ovarian = system: IGROV1 ovarian
K-562 leukemia = system: K-562 leukemia
KM12 colon = system: KM12 colon
LOX IMVI melanoma = system: LOX IMVI melanoma
M14 melanoma = system: M14 melanoma
MALME-3M melanoma = system: MALME-3M melanoma
MCF7 breast = system: MCF7 breast
MDA-MB-231 breast = system: MDA-MB-231 breast
MDA-MB-435 = system: MDA-MB-435
MOLT-4 leukemia = system: MOLT-4 leukemia
NCI-H226 lung = system: NCI-H226 lung
NCI-H23 lung = system: NCI-H23 lung
NCI-H460 lung = system: NCI-H460 lung
NCI-H522 lung = system: NCI-H522 lung
NCI/ADR-RES ovarian = system: NCI/ADR-RES ovarian
OVCAR-3 ovarian = system: OVCAR-3 ovarian
OVCAR-4 ovarian = system: OVCAR-4 ovarian
OVCAR-5 ovarian = system: OVCAR-5 ovarian
OVCAR-8 ovarian = system: OVCAR-8 ovarian
PC-3 prostate = system: PC-3 prostate
RPMI-8226 leukemia = system: RPMI-8226 leukemia
RXF 393 renal = system: RXF 393 renal
SF-268 CNS = system: SF-268 CNS
SF-295 CNS = system: SF-295 CNS
SF-539 CNS = system: SF-539 CNS
SK-MEL-2 melanoma = system: SK-MEL-2 melanoma
SK-MEL-28 melanoma = system: SK-MEL-28 melanoma
SK-MEL-5 melanoma = system: SK-MEL-5 melanoma
SK-OV-3 ovarian = system: SK-OV-3 ovarian
SN12C renal = system: SN12C renal
SNB-19 CNS = system: SNB-19 CNS
SNB-75 CNS = system: SNB-75 CNS
SR leukemia = system: SR leukemia
SW-620 colon = system: SW-620 colon
T-47D breast = system: T-47D breast
TK-10 renal = system: TK-10 renal
U251 CNS = system: U251 CNS
UACC-257 melanoma = system: UACC-257 melanoma
UACC-62 melanoma = system: UACC-62 melanoma
UO-31 renal = system: UO-31 renal

In the case of `CC(C)(C)Nc1nc2c(OCCc3ccccc3)cccn2c1-c1ccccc1Cl`, the GI50 (786-0 renal) is reported as 4.84 µM, the TGI (786-0 renal) is reported as 18.1 µM and the GI50 (A498 renal) is reported as 11.8 µM. It also gave a TGI (A498 renal) of 24.3 µM, a GI50 (A549 NSCLC) of 4.88 µM and a TGI (A549 NSCLC) of 27.1 µM. The GI50 (ACHN renal) was 8.82 µM, the TGI (ACHN renal) was 21 µM and the GI50 (BT-549 breast) was 2.61 µM. It also gave a TGI (BT-549 breast) of 10.2 µM, a GI50 (CAKI-1 renal) of 5.89 µM and a TGI (CAKI-1 renal) of 20.2 µM. The GI50 (CCRF-CEM leukemia) was 3.56 µM, the TGI (CCRF-CEM leukemia) was 16 µM and the GI50 (COLO 205 colon) was 3.49 µM. The TGI (COLO 205 colon) was 10.6 µM, the GI50 (DU-145 prostate) was 7.9 µM and the TGI (DU-145 prostate) was 24.6 µM. It also gave a GI50 (EKVX NSCLC) of 3.19 µM, a TGI (EKVX NSCLC) of 12.8 µM and a GI50 (HCC-2998 colon) of 3.51 µM. For the same compound, the TGI (HCC-2998 colon) was 12.5 µM, the GI50 (HCT-116 colon) was 4.01 µM and the TGI (HCT-116 colon) was 15.3 µM. For the same compound, the GI50 (HCT-15 colon) was 4.12 µM, the TGI (HCT-15 colon) was 15.9 µM and the GI50 (HL-60(TB) leukemia) was 2.42 µM. It also gave a TGI (HL-60(TB) leukemia) of 5.68 µM, a GI50 (HOP-62 NSCLC) of 4.82 µM and a TGI (HOP-62 NSCLC) of 18.9 µM. The GI50 (HOP-92 NSCLC) was 2.36 µM, the TGI (HOP-92 NSCLC) was 7.93 µM and the GI50 (HS 578T breast) was 4.05 µM. It also gave a TGI (HS 578T breast) of 21.4 µM, a GI50 (HT29 colon) of 4.62 µM and a TGI (HT29 colon) of 30.1 µM. For the same compound, the GI50 (IGROV1 ovarian) was 5.05 µM, the TGI (IGROV1 ovarian) was 17.8 µM and the GI50 (K-562 leukemia) was 3.25 µM. For the same compound, the TGI (K-562 leukemia) was 18.1 µM, the GI50 (KM12 colon) was 3.58 µM and the TGI (KM12 colon) was 12.4 µM. The GI50 (LOX IMVI melanoma) was 4.08 µM, the TGI (LOX IMVI melanoma) was 15.8 µM and the GI50 (M14 melanoma) was 3.9 µM. For the same compound, the TGI (M14 melanoma) was 15.3 µM, the GI50 (MALME-3M melanoma) was 2.23 µM and the TGI (MALME-3M melanoma) was 5.52 µM. For the same compound, the GI50 (MCF7 breast) was 3.35 µM, the TGI (MCF7 breast) was 14.7 µM and the GI50 (MDA-MB-231 breast) was 5.95 µM. It also gave a TGI (MDA-MB-231 breast) of 19 µM, a GI50 (MDA-MB-435) of 3.29 µM and a TGI (MDA-MB-435) of 11.2 µM. For the same compound, the GI50 (MOLT-4 leukemia) was 3.63 µM, the TGI (MOLT-4 leukemia) was 17 µM and the GI50 (NCI-H226 lung) was 3.52 µM. It also gave a TGI (NCI-H226 lung) of 16.6 µM, a GI50 (NCI-H23 lung) of 3.67 µM and a TGI (NCI-H23 lung) of 13.8 µM. It also gave a GI50 (NCI-H460 lung) of 3.76 µM, a TGI (NCI-H460 lung) of 13.4 µM and a GI50 (NCI-H522 lung) of 3.75 µM. The TGI (NCI-H522 lung) was 15.3 µM, the GI50 (NCI/ADR-RES ovarian) was 6.4 µM and the TGI (NCI/ADR-RES ovarian) was 20.5 µM. For the same compound, the GI50 (OVCAR-3 ovarian) was 2.93 µM, the TGI (OVCAR-3 ovarian) was 9.75 µM and the GI50 (OVCAR-4 ovarian) was 3.61 µM. The TGI (OVCAR-4 ovarian) was 14.9 µM, the GI50 (OVCAR-5 ovarian) was 11.9 µM and the TGI (OVCAR-5 ovarian) was 24.7 µM. The GI50 (OVCAR-8 ovarian) was 4.36 µM, the TGI (OVCAR-8 ovarian) was 20 µM and the GI50 (PC-3 prostate) was 3.37 µM. For the same compound, the TGI (PC-3 prostate) was 15.5 µM, the GI50 (RPMI-8226 leukemia) was 2.78 µM and the TGI (RPMI-8226 leukemia) was 7.5 µM. It also gave a GI50 (RXF 393 renal) of 9.26 µM, a TGI (RXF 393 renal) of 22.3 µM and a GI50 (SF-268 CNS) of 4.52 µM. It also gave a TGI (SF-268 CNS) of 18.8 µM, a GI50 (SF-295 CNS) of 3.19 µM and a TGI (SF-295 CNS) of 12.6 µM. It also gave a GI50 (SF-539 CNS) of 10.7 µM, a TGI (SF-539 CNS) of 22.5 µM and a GI50 (SK-MEL-2 melanoma) of 2.72 µM. It also gave a TGI (SK-MEL-2 melanoma) of 8.33 µM, a GI50 (SK-MEL-28 melanoma) of 3.45 µM and a TGI (SK-MEL-28 melanoma) of 13.1 µM. It also gave a GI50 (SK-MEL-5 melanoma) of 2.01 µM, a TGI (SK-MEL-5 melanoma) of 4.43 µM and a GI50 (SK-OV-3 ovarian) of 3.82 µM. It also gave a TGI (SK-OV-3 ovarian) of 16.9 µM, a GI50 (SN12C renal) of 3.03 µM and a TGI (SN12C renal) of 12.7 µM. The GI50 (SNB-19 CNS) was 3.35 µM, the TGI (SNB-19 CNS) was 13.1 µM and the GI50 (SNB-75 CNS) was 1.58 µM. The TGI (SNB-75 CNS) was 13.9 µM, the GI50 (SR leukemia) was 3.89 µM and the TGI (SR leukemia) was 43.4 µM. It also gave a GI50 (SW-620 colon) of 4.91 µM, a TGI (SW-620 colon) of 17.7 µM and a GI50 (T-47D breast) of 2.35 µM. The TGI (T-47D breast) was 17.1 µM, the GI50 (TK-10 renal) was 6.49 µM and the TGI (TK-10 renal) was 20.4 µM. The GI50 (U251 CNS) was 3.14 µM, the TGI (U251 CNS) was 12.5 µM and the GI50 (UACC-257 melanoma) was 3.52 µM. The TGI (UACC-257 melanoma) was 13 µM, the GI50 (UACC-62 melanoma) was 2.22 µM and the TGI (UACC-62 melanoma) was 6.55 µM. It also gave a GI50 (UO-31 renal) of 3.2 µM and a TGI (UO-31 renal) of 16.8 µM.

From PubChem BioAssay (NCI)
